Entries after “also recorded” stand apart in the source; their conditions may differ.
Columns and labels:
[1] = test system: histamine production or release in human blood; experiment: Plasma histamine in human blood; type: cell-based; conditions: human blood from a donor prone to LRR; 10 uM
Method: In this example, 3 cc human blood from a donor prone to LRR was collected and shipped to Quest on ice pursuant to Quest collection protocol 36586 and incubated with (a) Mannitol+Compound 4 (10 uM), (b) Varespladib (10 uM), or (c) Mannitol alone (excipient). Samples were processed for plasma histamine levels, compared with the Mannitol-only control.

[2] = test system: venous human blood incubated with Boomslang (Dispholidus typus) venom; experiment: Hemolysis of ex vivo human blood treated with Boomslang venom (FIG. 5B); type: cell-based; conditions: Compound 4 1 uM with or without soluble simvastatin 1 uM, 90 minutes
[3] = test system: boomslang venom or bee venom; experiment: Venom-induced acute kidney injury in mice, boomslang venom or bee venom (FIG. 7); type: in vivo, mouse; conditions: sublethal envenomation; single dose at same time as venom; 24 hours
[4] = test system: V. berus venom sPLA2; experiment: sPLA2 chromogenic inhibition assay, V. berus venom; type: biochemical; conditions: chromogenic sPLA2 assay after 60 of incubation, read-out: IC50 for each venom inhibitor
[5] = test system: C. terrificus venom sPLA2; experiment: sPLA2 chromogenic inhibition assay, C. terrificus venom; type: biochemical; conditions: chromogenic sPLA2 assay after 60 of incubation, read-out: IC50 for each venom inhibitor
[6] = molecular target: T1, bee venom sPLA2 (Apis mellifera, UniProt P00630); experiment: biochemical; type: biochemical
T1 sequence (P00630 34-167 limits assumed): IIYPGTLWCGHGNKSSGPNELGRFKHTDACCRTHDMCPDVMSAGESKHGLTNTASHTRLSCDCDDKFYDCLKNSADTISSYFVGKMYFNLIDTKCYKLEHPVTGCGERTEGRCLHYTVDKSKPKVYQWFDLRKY

[7] = test system: A. contortrix venom sPLA2; experiment: sPLA2 chromogenic inhibition assay, A. contortrix venom; type: biochemical; conditions: chromogenic sPLA2 assay after 60 of incubation, read-out: IC50 for each venom inhibitor
[8] = test system: M. fulvius venom sPLA2; experiment: M. fulvius venom sPLA2 inhibition; type: biochemical; conditions: 10 μM
[9] = test system: E. carinatus venom MP; experiment: E. carinatus venom MP inhibition; type: biochemical; conditions: 10 μM
[10] = test system: C. atrox venom MP; experiment: C. atrox venom MP inhibition; type: biochemical; conditions: 10 μM
[11] = test system: Snake venom metalloprotease, C. atrox and E. carinatus; experiment: Snake venom metalloprotease inhibition for C. atrox and E. carinatus; type: biochemical; conditions: 10 μM; range over both venoms
[12] = test system: C. atrox venom sPLA2; experiment: sPLA2 chromogenic inhibition assay, C. atrox venom; type: biochemical; conditions: chromogenic sPLA2 assay after 60 of incubation, read-out: IC50 for each venom inhibitor
[13] = test system: V. russelli venom sPLA2; experiment: sPLA2 chromogenic inhibition assay, V. russelli venom; type: biochemical; conditions: chromogenic sPLA2 assay after 60 of incubation, read-out: IC50 for each venom inhibitor
[14] = test system: C. adamanteus venom sPLA2; experiment: sPLA2 chromogenic inhibition assay, C. adamanteus venom; type: biochemical; conditions: chromogenic sPLA2 assay after 60 of incubation, read-out: IC50 for each venom inhibitor
[15] = molecular target: T1, bee venom sPLA2; conditions: cited from earlier work
[16] = test system: venous human blood incubated with M. Fulvius venom; experiment: Hemolysis of ex vivo whole human blood treated with M. Fulvius venom (FIG. 5A); type: cell-based; conditions: inhibitor 1 uM with or without soluble simvastatin 1 uM, 90 minutes
[17] = test system: whole bee (Apis mellifera) venom; experiment: Acute kidney injury in mice after whole bee venom (FIG. 8); type: in vivo, mouse; conditions: single dose Varespladib (LY315920) with bee venom, then oral methylvarespladib (LY333013) ad libitum in diet; kidneys examined 36 hours
[18] = test system: bee venom; experiment: Survival of mice envenomated with bee venom; type: in vivo, CD-1 mice; conditions: 5 mice; bee venom 5 mg/kg IV; 25 mg/kg varespladib SQ immediately after envenomation

| Compound | IC50 [4] [nM] | inhibitory activity in vitro against bee venom sPLA2 [6] | IC50 [7] [nM] | M. fulvius venom sPLA2 inhibition % effect [8] [%] | E. carinatus venom MP inhibition % effect [9] [%] | C. atrox venom MP inhibition % effect [10] [%] | Snake venom metalloprotease inhibition for C. atrox and E. carinatus [11] [%] | other results |
| --- | --- | --- | --- | --- | --- | --- | --- | --- |
| NC(=O)c1ccc(Cc2ccccc2)cc1-c1cccc(CCC(=O)O)c1 [Compound 4, 3-(5′-Benzyl-2′-carbamoylbiphenyl-3-yl) propanoic acid] | 170 | very weak inhibitory activity; also recorded: virtually no effect | 88 | – | – | – | – | Plasma Histamine [1]: 10.1 ng/mL; anti-hemolytic activity [2]: anti-hemolytic activity; signs of acute kidney injury (gross kidney appearance) [3]: comparably minimal signs of acute kidney injury; IC50 [5]: 670 nM; IC50 [6]: > 70000 nM |
| CC[C@H](C)C(=O)O[C@H]1C[C@@H](C)C=C2C=C[C@H](C)[C@H](CC[C@@H]3C[C@@H](O)CC(=O)O3)[C@H]21 [LOVASTATIN, Lovastatin] | – | – | – | 11.09 | −1.89 | – | – | – |
| CCC(C)(C)C(=O)O[C@H]1C[C@@H](C)C=C2C=C[C@H](C)[C@H](CC[C@@H]3C[C@@H](O)CC(=O)O3)[C@H]21 [SIMVASTATIN, Simvastatin] | – | – | – | 16.41 | −0.20 to 4.61 | 4.03 | −0.20 to 4.61 | – |
| CC[C@H](C)C(=O)O[C@H]1C[C@H](O)C=C2C=C[C@H](C)[C@H](CC[C@@H](O)C[C@@H](O)CC(=O)O)[C@H]21 [PRAVASTATIN, Pravastatin] | – | – | – | 6.9 | 4.02 | 2.27 | 2.27 to 4.02 | – |
| CC[C@H](C)C(=O)O[C@H]1CCC=C2C=C[C@H](C)[C@H](CC[C@@H]3C[C@@H](O)CC(=O)O3)[C@H]21 [MEVASTATIN, Mevastatin] | – | – | – | 16.29 | −1.89 to 3.82 | 7.17 | −1.89 to 7.17 | – |
| CCc1c(C(=O)C(N)=O)c2c(OCC(=O)OC)cccc2n1Cc1ccccc1 [Me-Varespladib] | 170 | very weak inhibitory activity; also recorded: not potent inhibitors | 430 | – | – | – | – | IC50 [12]: 200 nM; IC50 [13]: 80 nM; IC50 [14]: 360 nM; performance in vitro against bee venom sPLA2 in earlier studies [15]: performed extremely poorly |
| CCc1c(C(=O)C(N)=O)c2c(OCC(=O)O)cccc2n1Cc1ccccc1 [Varespladib, ((3-(2-Amino-1,2-dioxoethyl)-2-ethyl-1-(phenylmethyl)-1H-indol-4-yl)oxy)acetic acid] | 0.8 | very weak inhibitory activity; also recorded: not potent inhibitors | 0.9 | – | – | – | – | IC50 [12]: 0.7 nM; Plasma Histamine [1]: 5.1 ng/mL; signs of acute kidney injury (gross kidney appearance) [3]: minimal signs of acute kidney injury; IC50 [13]: 0.4 nM; anti-hemolytic activity (Hgb absorption spectra) [16]: remained unchanged with the addition of statin; IC50 [5]: 21 nM; IC50 [14]: 0.8 nM; protection from AKI (pigment nephropathy, hyperemia) [17]: excellent protection from AKI; survival compared to controls [18]: uniformly prolonged survival; IC50 [6]: 12000 to 18000 nM; higher IC50 against bee venom PLA2 as compared to snake venom PLA2 [6]: 5-45,000 fold; performance in vitro against bee venom sPLA2 in earlier studies [15]: performed extremely poorly |
| O=C(O)C[C@H](O)C[C@H](O)/C=C/c1c(C2CC2)nc2ccccc2c1-c1ccc(F)cc1 [ITAVASTATIN, Pitavastatin] | – | – | – | – | 0.48 | 5.09 | 0.48 to 5.09 | – |
